Patent US20250170130A1, “MODULATORS OF MYC FAMILY PROTO-ONCOGENE PROTEIN” (Nalo Therapeutics, priority 2022, published 2025)
Like-named read-outs stand apart in the source and are kept apart here.

Experiments:
[1] = target: T1, MycN (Homo sapiens, UniProt P04198); test: Degradation of MycN protein in SK-N-BE(2) cells, JESS/Western blot of lysates; assay type: cell-based; details: SKNBE2, 24 h; for Dmax at 0.5 µM: read-out: % Degradation of MycN (SKNBE2) 24 h, 0.5 μM; for Dmax at 1 µM: read-out: % Degradation of MycN (SKNBE2) 24 h, 1 μM; for Dmax at 3 µM: read-out: % Degradation of MycN (SKNBE2) 24 h, 3 μM; for Dmax at 6 µM: read-out: % Degradation of MycN (SKNBE2) 24 h, 6 μM
T1 construct: endogenous in cells; host or cells: SK-N-BE(2)
T1 sequence (P04198 1-464): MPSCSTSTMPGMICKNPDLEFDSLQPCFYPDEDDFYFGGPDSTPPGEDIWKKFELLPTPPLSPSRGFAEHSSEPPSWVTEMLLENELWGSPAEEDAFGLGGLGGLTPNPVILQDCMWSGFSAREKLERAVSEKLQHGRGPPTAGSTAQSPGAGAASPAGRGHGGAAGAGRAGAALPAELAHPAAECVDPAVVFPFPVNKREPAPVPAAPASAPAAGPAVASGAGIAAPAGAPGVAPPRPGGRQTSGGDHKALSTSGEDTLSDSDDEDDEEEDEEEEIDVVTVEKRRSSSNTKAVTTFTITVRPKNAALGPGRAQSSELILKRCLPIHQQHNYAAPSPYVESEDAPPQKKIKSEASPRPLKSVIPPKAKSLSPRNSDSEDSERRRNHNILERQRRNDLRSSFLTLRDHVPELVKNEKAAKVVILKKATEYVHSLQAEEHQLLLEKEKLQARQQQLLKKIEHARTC
Procedure, shortened: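 SK-N-BE(2) adherent cells (5E5 per well of a 6 well dish) were grown 24 hrs, then exposed to compounds diluted 1 in 20 in media, with DMSO controls, for 24 hrs. Cells were scraped, pelleted, PBS washed and lysed in RIPA buffer cocktail; after BCA protein quantitation, n-myc was detected by chemiluminescence on JESS/Western blot with tubulin and GAPDH loading controls read in the near infra red channel.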

[2] = target: T2, MycC (Homo sapiens, UniProt P01106); test: Degradation of MycC protein in L363 cells, JESS/Western blot of lysates; assay type: cell-based; details: L-363, 24 h; for Dmax at 0.5 µM: read-out: % Degradation of MycC (L-363) 24 h, 0.5 μM; for Dmax at 1 µM: read-out: % Degradation of MycC (L-363) 24 h, 1 μM; for Dmax at 3 µM: read-out: % Degradation of MycC (L-363) 24 h, 3 μM; for Dmax at 6 µM: read-out: % Degradation of MycC (L-363) 24 h, 6 μM
T2 construct: endogenous in cells; host or cells: L363
T2 sequence (P01106 whole entry): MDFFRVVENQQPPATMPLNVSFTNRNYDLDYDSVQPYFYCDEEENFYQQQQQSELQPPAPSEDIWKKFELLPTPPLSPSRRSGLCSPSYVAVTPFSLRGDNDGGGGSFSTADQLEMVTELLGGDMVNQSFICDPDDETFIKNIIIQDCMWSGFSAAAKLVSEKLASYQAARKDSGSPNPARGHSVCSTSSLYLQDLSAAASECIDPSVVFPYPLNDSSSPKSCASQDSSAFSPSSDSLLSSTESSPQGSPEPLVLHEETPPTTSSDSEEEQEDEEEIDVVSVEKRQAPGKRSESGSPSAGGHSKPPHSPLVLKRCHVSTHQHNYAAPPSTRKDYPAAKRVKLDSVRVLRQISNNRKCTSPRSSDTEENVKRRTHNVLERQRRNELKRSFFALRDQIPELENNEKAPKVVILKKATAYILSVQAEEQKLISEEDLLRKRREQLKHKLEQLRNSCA
Procedure, shortened: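 L363 suspension cells were seeded at 1E6 cells per well and exposed to compound (stock 10 mM in DMSO) for 24 hrs. Cells were collected, spun down, rinsed with PBS, lysed in RIPA buffer cocktail on ice, clarified and kept at −80 degrees. Lysate protein was quantified by BCA, and c-myc was measured on JESS by chemiluminescence with tubulin and GAPDH loading controls in the NIR channel.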

SMILES | Dmax at 0.5 µM ([1]; SKNBE2 cells, 24 h, 0.5 μM) [%] | Dmax at 1 µM ([1]; SKNBE2 cells, 24 h, 1 μM) [%] | Dmax at 3 µM ([1]; SKNBE2 cells, 24 h, 3 μM) [%] | Dmax at 6 µM ([1]; SKNBE2 cells, 24 h, 6 μM) [%] | Dmax at 0.5 µM ([2]; L-363 cells, 24 h, 0.5 μM) [%] | Dmax at 1 µM ([2]; L-363 cells, 24 h, 1 μM) [%] | Dmax at 3 µM ([2]; L-363 cells, 24 h, 3 μM) [%] | Dmax at 6 µM ([2]; L-363 cells, 24 h, 6 μM) [%] | Dmax at 0.5 µM [1] [%] | Dmax at 1 µM [1] [%] | Dmax at 3 µM [1] [%] | Dmax at 6 µM [1] [%] | Dmax at 0.5 µM [2] [%] | Dmax at 1 µM [2] [%] | Dmax at 3 µM [2] [%] | Dmax at 6 µM [2] [%]
NC[C@H]1CN(c2nccc(Nc3cc(C4CCCC4)[nH]n3)n2)C[C@H]1F [Compound 123-2, 2-[(3S,4S)-3-(Aminomethyl)-4-fluoro-pyrrolidin-1-yl]-N-(5-cyclopentyl-1H-pyrazol-3-yl)pyrimidin-4-amine] | 20 to 49 | 20 to 49 | 50 to 79 | 80 to 100 | 20 to 49 | 50 to 79 | 80 to 100 | 80 to 100 |  |  |  |  |  |  |  | 
NCC1CN(c2nccc(Nc3cc(C4CC4)[nH]n3)n2)CC1(F)F (centres unmarked) [Compound 124, 2-[4-(Aminomethyl)-3,3-difluoro-pyrrolidin-1-yl]-N-(5-cyclopropyl-1H-pyrazol-3-yl)pyrimidin-4-amine] | 20 to 49 | 20 to 49 | 20 to 49 | 80 to 100 |  | < 20 |  | 80 to 100 |  |  |  |  |  |  |  | 
NCC1CN(c2nccc(Nc3cc(C4CCCC4)[nH]n3)n2)CC1(F)F (centres unmarked) [Compound 125, 2-[4-(Aminomethyl)-3,3-difluoro-pyrrolidin-1-yl]-N-(5-cyclopentyl-1H-pyrazol-3-yl)pyrimidin-4-amine] | 20 to 49 | 20 to 49 | 50 to 79 | 80 to 100 | 20 to 49 | 20 to 49 |  | 80 to 100 |  |  |  |  |  |  |  | 
O=C1c2ccccc2C(=O)N1CC12CC(CN(c3nccc(Nc4cc(C5CC5)[nH]n4)n3)C1)C2 [Compound 126, 2-[[3-[4-[(5-Cyclopropyl-1H-pyrazol-3-yl)amino]pyrimidin-2-yl]-3-azabicyclo[3.1.1]heptan-1-yl]methyl]isoindoline-1,3-dione] | 80 to 100 | 80 to 100 | 80 to 100 | 80 to 100 | 80 to 100 | 80 to 100 | 80 to 100 | 80 to 100 |  |  |  |  |  |  |  | 
O=C1c2ccccc2C(=O)N1CC12CC(CN(c3nccc(Nc4cc(C5CCCC5)[nH]n4)n3)C1)C2 [Compound 127, 2-[[3-[4-[(5-Cyclopentyl-1H-pyrazol-3-yl)amino]pyrimidin-2-yl]-3-azabicyclo[3.1.1]heptan-1-yl]methyl]isoindoline-1,3-dione] |  |  |  |  |  |  |  |  | 50 to 79 | 80 to 100 | 80 to 100 | 80 to 100 | < 20 | 80 to 100 | 80 to 100 | 80 to 100
COC1CN(CC23CC(C2)N(c2nccc(Nc4cc(C5CCCC5)[nH]n4)n2)C3)C1 [Compound 177, N-(5-Cyclopentyl-1H-pyrazol-3-yl)-2-[4-[(3-methoxyazetidin-1-yl)methyl]-2-azabicyclo[2.1.1]hexan-2-yl]pyrimidin-4-amine] | 20 to 49 | < 20 | 50 to 79 | 50 to 79 | < 20 | 20 to 49 | 20 to 49 | 80 to 100 |  |  |  |  |  |  |  | 
CNC[C@H]1CN(c2nccc(Nc3cc(C4CCCC4)[nH]n3)n2)C[C@H]1F [Compound 181] | < 20 | < 20 | 20 to 49 | 80 to 100 |  | < 20 |  | 80 to 100 |  |  |  |  |  |  |  | 
CNCC12CC(C1)N(c1ncc(C)c(Nc3cc(C4CCCC4)[nH]n3)n1)C2 [Compound 182, N-(5-Cyclopentyl-1H-pyrazol-3-yl)-5-methyl-2-[4-(methylaminomethyl)-2-azabicyclo[2.1.1]hexan-2-yl]pyrimidin-4-amine] | 20 to 49 | 20 to 49 | 80 to 100 | 80 to 100 |  |  |  | 80 to 100 |  |  |  |  |  |  |  | 
